Test [1] has as its target T1, ER (Homo sapiens (Human), UniProt P03372). Put plainly: In-cell western (ICW) ER degradation assay in MCF-7 cells. The class given is cell-based. The settings on record: MCF7, 16 hrs; for DC50: ER degradation; for Dmax: MCF7, maximal ER degradation.
Test [2] has as its target T1, ER. Put plainly: In-cell western (ICW) ER degradation assay in T47D cells. The class given is cell-based. The settings on record: 16 hrs; for DC50: ER degradation; for Dmax: maximal ER degradation.
The next test addresses CRBN/DDB1 (Homo sapiens (Human), UniProt Q96SW2). Briefly: HTRF binding assay to CRBN/DDB1. The settings on record: read-out: CRBN HTRF IC50. On the procedure: The binding potency was determined using HTRF assay technology (Perkin Elmer). Compounds were serially diluted in DMSO and 0.2 μL volume was transferred to white 384-well plate.
(TR-FRET usually uses a lanthanide donor and a delayed reading to cut background.)

Structures are written as SMILES.

Results on seven compounds are retold here after patent publication US20260000676A1, “CHROMAN DERIVATIVES AS ESTROGEN RECEPTOR DEGRADERS” (THE REGENTS OF THE UNIVERSITY OF MICHIGAN, priority 2022, published 2026).

Chain of CRBN/DDB1 (Q96SW2 whole entry): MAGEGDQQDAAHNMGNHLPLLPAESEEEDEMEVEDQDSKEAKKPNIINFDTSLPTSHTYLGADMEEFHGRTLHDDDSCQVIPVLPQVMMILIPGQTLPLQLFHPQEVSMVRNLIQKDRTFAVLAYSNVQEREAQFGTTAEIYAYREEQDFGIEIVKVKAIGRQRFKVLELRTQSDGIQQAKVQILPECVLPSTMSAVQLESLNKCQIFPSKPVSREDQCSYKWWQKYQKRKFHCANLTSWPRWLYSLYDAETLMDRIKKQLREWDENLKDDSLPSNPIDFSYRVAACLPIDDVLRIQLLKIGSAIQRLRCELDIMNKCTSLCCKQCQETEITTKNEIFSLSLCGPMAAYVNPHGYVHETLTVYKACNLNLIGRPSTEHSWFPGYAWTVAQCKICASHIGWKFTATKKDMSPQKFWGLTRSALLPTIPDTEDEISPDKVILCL
Chain of CRBN/DDB1 (Q16531 whole entry partner): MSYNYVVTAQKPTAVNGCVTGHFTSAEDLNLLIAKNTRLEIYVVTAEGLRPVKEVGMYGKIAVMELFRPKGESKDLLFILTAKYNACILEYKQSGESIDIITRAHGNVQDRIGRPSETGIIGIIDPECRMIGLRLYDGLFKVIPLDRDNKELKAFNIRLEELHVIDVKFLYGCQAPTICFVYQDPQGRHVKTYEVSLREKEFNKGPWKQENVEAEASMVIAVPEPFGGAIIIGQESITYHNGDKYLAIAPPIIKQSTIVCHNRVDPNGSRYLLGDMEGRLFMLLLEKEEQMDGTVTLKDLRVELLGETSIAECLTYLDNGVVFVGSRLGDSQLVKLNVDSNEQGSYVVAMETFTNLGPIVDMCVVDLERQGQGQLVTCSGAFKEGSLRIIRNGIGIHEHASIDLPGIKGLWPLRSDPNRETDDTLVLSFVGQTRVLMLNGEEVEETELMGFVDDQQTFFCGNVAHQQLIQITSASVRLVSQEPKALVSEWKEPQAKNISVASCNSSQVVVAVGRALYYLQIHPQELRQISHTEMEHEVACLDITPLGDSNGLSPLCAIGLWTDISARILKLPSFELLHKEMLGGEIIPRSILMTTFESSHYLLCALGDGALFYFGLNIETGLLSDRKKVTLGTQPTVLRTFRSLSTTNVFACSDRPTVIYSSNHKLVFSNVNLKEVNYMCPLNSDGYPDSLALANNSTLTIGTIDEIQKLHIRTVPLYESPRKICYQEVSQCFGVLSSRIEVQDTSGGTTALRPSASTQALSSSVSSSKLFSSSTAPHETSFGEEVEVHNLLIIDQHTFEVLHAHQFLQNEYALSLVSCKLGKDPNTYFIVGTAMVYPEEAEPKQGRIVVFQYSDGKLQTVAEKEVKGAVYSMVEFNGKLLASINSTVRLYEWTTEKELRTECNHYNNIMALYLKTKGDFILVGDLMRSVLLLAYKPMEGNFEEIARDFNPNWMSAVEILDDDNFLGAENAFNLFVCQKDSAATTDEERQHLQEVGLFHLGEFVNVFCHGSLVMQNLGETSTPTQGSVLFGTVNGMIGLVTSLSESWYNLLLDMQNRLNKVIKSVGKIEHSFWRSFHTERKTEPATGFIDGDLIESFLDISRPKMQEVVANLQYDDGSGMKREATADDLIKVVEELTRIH
T1 sequence (P03372 whole entry): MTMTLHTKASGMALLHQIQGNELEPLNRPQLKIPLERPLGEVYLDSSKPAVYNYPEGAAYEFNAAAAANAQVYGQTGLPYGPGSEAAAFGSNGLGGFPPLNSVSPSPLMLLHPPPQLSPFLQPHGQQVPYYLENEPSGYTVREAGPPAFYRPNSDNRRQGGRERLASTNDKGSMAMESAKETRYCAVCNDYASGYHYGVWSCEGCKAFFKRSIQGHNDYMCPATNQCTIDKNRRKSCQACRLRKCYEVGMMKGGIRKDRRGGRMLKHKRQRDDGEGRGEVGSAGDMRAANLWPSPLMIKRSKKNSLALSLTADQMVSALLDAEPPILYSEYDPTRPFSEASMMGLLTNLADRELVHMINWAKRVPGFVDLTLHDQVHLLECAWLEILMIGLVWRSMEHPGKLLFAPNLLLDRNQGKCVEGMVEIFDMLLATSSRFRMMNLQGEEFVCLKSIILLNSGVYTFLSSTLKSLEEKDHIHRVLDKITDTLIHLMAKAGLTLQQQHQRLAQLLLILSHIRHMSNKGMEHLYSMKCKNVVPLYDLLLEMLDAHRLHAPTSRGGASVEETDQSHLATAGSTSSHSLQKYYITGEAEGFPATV

Regarding `O=C1CCC(NC(=O)c2ccc(N3CCC(CN4CCN(c5ccc([C@H]6c7ccc(O)cc7OC[C@H]6c6ccccc6)cc5)CC4)CC3)cn2)C(=O)N1` (single isomer, unassigned) [Compound A128], the 50% degradation concentration (DC50) at ER [1] and at ER [2] was less than 1 nM each time. Further, at ER [1] (maximal ER degradation), the “MCF7 Dmax %” value was “B (“B”: >50% and <75%)”. On ER [2], the Dmax (usually the largest share of the target that was removed) fell in the range of 50 to 75%. Moreover, the 50% inhibitory concentration (IC50) (commonly the midpoint of a concentration-inhibition curve) on CRBN/DDB1 was greater than 5000 nM.

On to `O=C1CC[C@@H](N2Cc3c(ccc4c3OC[C@@H]3CN(C[C@@H]5COC6(CCN(c7ccc([C@H]8c9ccc(O)cc9OC[C@H]8c8ccccc8)cc7F)CC6)C5)CCN43)C2=O)C(=O)N1` [Compound A155, (R)-3-((S)-7-(((R)-8-(2-fluoro-4-((3R,4S)-7-hydroxy-3-phenylchroman-4-yl)phenyl)-1-oxa-8-azaspiro[4.5]decan-3-yl)methyl)-1-oxo-1,3,5,5a,6,7,8,9-octahydro-2H-pyrazino[1′,2′:4,5][1,4]oxazino[2,3-e]isoindol-2-yl)piperidine-2,6-dione], for which the half-maximal degradation concentration (DC50) (in general, the midpoint of the concentration-degradation curve) was greater than 100 nM at ER [1] and 1 to 10 nM at ER [2]. Besides, the Dmax is less than 25% at ER [1] and 25 to 50% on ER [2]. Also, the half-inhibitory concentration (IC50) on CRBN/DDB1 was less than 50 nM.

Take `O=C1CC[C@@H](Nc2ccc(C3CCN(C[C@H]4COC5(CCN(c6ccc([C@H]7c8ccc(O)cc8OC[C@H]7c7ccccc7)cc6)CC5)C4)CC3)c(F)c2)C(=O)N1` (single isomer, unassigned) [Compound A164]: the half-maximal degradation concentration (DC50) is less than 1 nM on ER [1] and 1 to 10 nM at ER [2]. For the same compound, the maximal degradation (Dmax) at ER [1] lay within 25 to 50%; on ER [2] it was 50 to 75%. Besides, at CRBN/DDB1, the half-maximal inhibitory concentration (IC50) is less than 50 nM.

In the case of `O=C1CC[C@@H](Nc2ccc(C3CCN(C[C@@H]4COC5(CCN(c6ccc([C@H]7c8ccc(O)cc8OC[C@H]7c7ccccc7)cc6)CC5)C4)CC3)c(F)c2)C(=O)N1` (mixture of isomers) [Compound A162, 3-((3-fluoro-4-(1-(((R)-8-(4-((3RS, 4SR)-7-hydroxy-3-phenylchroman-4-yl)phenyl)-1-oxa-8-azaspiro[4.5]decan-3-yl)methyl)piperidin-4-yl)phenyl)amino)piperidine-2,6-dione], the 50% degradation concentration (DC50) on ER [1] and on ER [2] was less than 1 nM in each case. In addition, the figures for the Dmax on ER [1] and on ER [2] were 25 to 50% and no less than 75%, respectively. For the same compound, the IC50 at CRBN/DDB1 was less than 50 nM.

For the compound `O=C1CCC(N2Cc3cc4c(cc3C2=O)OC[C@@H]2CN(CC3CCN(c5ccc([C@H]6c7ccc(O)cc7OC[C@H]6c6ccccc6)cn5)CC3)CCN42)C(=O)N1` (single isomer, unassigned) [Compound A61], at ER [1], the half-maximal degradation concentration (DC50) lay in the range of 1 to 10 nM and the Dmax is 25 to 50%. Besides, at ER [2], the DC50 was in the range of 1 to 10 nM and the Dmax lay within 50 to 75%. The half-maximal inhibitory concentration (IC50) at CRBN/DDB1 was in the range of 50 to 500 nM.

Turning to `O=C1CCC(Nc2ccc(C3CCN(CC4CCN(c5ccc([C@@H]6c7ccc(O)cc7OC[C@@H]6c6ccccc6)cc5)CC4)CC3)c(F)c2)C(=O)N1` (single isomer, unassigned) [Compound A72], at ER [1], the DC50 was greater than 100 nM and the Dmax was less than 25%. Moreover, at ER [2], the DC50 was less than 1 nM and the Dmax fell in the range of 25 to 50%. For the same compound, the IC50 on CRBN/DDB1 lay in the range of 50 to 500 nM.

Turning to `O=C1CCC(Nc2ccc(C3CCN(CC4CC5(CCN(c6ccc([C@@H]7c8ccc(O)cc8OC[C@@H]7c7ccccc7)cc6)CC5)C4)CC3)c(F)c2)C(=O)N1` (single isomer, unassigned) [Compound A75], at ER [1], the half-maximal degradation concentration (DC50) is less than 1 nM and the maximal degradation (Dmax) lay in the range of 25 to 50%. In addition, on ER [2], the 50% degradation concentration (DC50) lay within 1 to 10 nM and the greatest degradation seen (Dmax) was 50 to 75%. The IC50 on CRBN/DDB1 lay within 50 to 500 nM.
